Test results published in patent US7691876B2, “Heterobicyclic amide compounds” (Hoffmann-La Roche Inc., priority 2006, dated 2010).

Biological target: T1, cholesteryl ester transfer protein (CETP) (Homo sapiens, UniProt P11597)
T1 construct: the source of CETP was human lipoprotein-deprived serum (LPDS); from tissue; host or cells: human lipoprotein-deprived serum (LPDS)
T1 sequence (P11597 18-493): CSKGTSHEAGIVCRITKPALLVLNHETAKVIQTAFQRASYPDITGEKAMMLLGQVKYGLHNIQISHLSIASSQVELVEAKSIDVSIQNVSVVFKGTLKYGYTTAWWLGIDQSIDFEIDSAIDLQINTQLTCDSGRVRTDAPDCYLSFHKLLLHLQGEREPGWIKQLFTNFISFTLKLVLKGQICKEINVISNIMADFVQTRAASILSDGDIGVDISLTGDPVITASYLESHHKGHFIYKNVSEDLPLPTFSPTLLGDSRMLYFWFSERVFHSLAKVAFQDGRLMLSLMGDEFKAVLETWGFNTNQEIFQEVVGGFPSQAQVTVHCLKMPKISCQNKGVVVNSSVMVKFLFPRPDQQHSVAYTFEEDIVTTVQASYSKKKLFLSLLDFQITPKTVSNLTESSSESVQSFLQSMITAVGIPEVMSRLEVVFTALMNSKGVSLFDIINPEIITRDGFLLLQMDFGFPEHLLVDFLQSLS
Experiment: CETP activity SPA assay in the presence of plasma (human lipoprotein-deprived serum as source of CETP)
Type: biochemical
Conditions: source of CETP was human lipoprotein-deprived serum (LPDS), transfer of radiolabeled cholesteryl ester from HDL donor to biotin-labeled LDL acceptor particles
Method: Activity of CETP inhibitors was determined using a buffer assay system. Partially purified CETP transferred radiolabeled cholesteryl ester from HDL donor particles to biotin-labeled LDL acceptor particles. The reaction was stopped by addition of streptavidin-coupled scintillation proximity assay (SPA) beads. These beads captured the biotinylated acceptor particles and transferred radioactivity was measured. The assay system was purchased and performed according to manufacturer's recommendations (Amersham Biosciences). Inhibitory activity of compounds was determined as percentage of positive control activity containing CETP together with donor and acceptor particles. Serial dilution of compounds was performed in order to determine the IC50 values.
Activity of the compounds was subsequently measured in the presence of plasma using the same assay as described above except that the source of CETP was human lipoprotein-deprived serum (LPDS). Inhibitory activity of compounds was determined as percentage of positive control activity containing all the assay components except compound. Serial dilution of compounds was performed in order to determine the IC50 values.

Row | IC50 [nM] | SMILES
1 | 141 | Cc1cc2cc[nH]c2c(C(=O)N(CCc2ccc(Cl)c(Cl)c2)Cc2ccc(C(C)(C)C)cc2)n1 [Compound 3.14, 5-methyl-1H-pyrrolo[2,3-c]pyridine-7-carboxylic acid (4-tert-butyl-benzyl)-[2-(3,4-dichloro-phenyl)-ethyl]-amide]
2 | 437 | CC(C)(C)c1ccc(CN(CCc2ccc(F)cc2)C(=O)c2ncc(F)c3cc[nH]c23)cc1 [Compound 3.15, 4-fluoro-1H-pyrrolo[2,3-c]pyridine-7-carboxylic acid (4-tert-butyl-benzyl)-[2-(4-fluoro-phenyl)-ethyl]-amide]
3 | 175 | CC(C)(C)c1ccc(CN(CCc2cccc(C(F)(F)F)c2)C(=O)c2nc(Cl)cc3cc[nH]c23)cc1 [Compound 3.22, 5-chloro-1H-pyrrolo[2,3-c]pyridine-7-carboxylic acid (4-tert-butyl-benzyl)-[2-(3-trifluoromethyl-phenyl)-ethyl]-amide]
